For experiment [1], the system named is Bb.Ste2. Format: cell-based, Beauveria bassiana.
Experiment [2] has as its system Fo.Ste2. Format: cell-based, Fusarium oxysporum.
The test system of experiment [3] is Bc.Ste2. The experiment is classed as cell-based, Botrytis cinerea.
Experiment [4] has as its system Fo.Ste2. Format: cell-based, Fusarium oxysporum. This is another data set of the same source.
For a further experiment, the system named is Hj.Hpr2. Format: cell-based, Hypocrea jecorina.
The test system of experiment [5] is Fg.Ste2. To be noted: SC-AS/Urea compared to SC media with ammonium sulfate alone.
The test system of experiment [6] is no_GPCR (negative control lacking a GPCR). The experiment is classed as cell-based, Saccharomyces cerevisiae. Conditions: SC-AS/Urea compared to SC media with ammonium sulfate alone.
Experiment [7] relates to Bb.Ste2. Format: cell-based, Beauveria bassiana. The source holds these as a separate data set.
For a further experiment, the system named is Hj Ste2 GPCR (Hj.Hpr2). The experiment is classed as cell-based, Hypocrea jecorina.
For experiment [8], the system named is Bc.Ste2. The experiment is classed as cell-based, Botrytis cinerea. The source holds these as a separate data set.
The test system of experiment [9] is Fo.Ste2. The experiment is classed as cell-based, Fusarium oxysporum. The source holds these as a separate data set.
For a further experiment, the system named is Mo Ste2 GPCR. The experiment is classed as cell-based, Magnaporthe oryzae.
For experiment [10], the system named is Bb.Ste2. The experiment is classed as cell-based, Beauveria bassiana. The source holds these as a separate data set.
A further experiment concerns Nc Ste2 GPCR. Format: cell-based, Neurospora crassa.
The next experiment has as its system Ca.Ste2. The experiment is classed as cell-based, Candida albicans.
The next experiment concerns the target T1, Sc Ste2 (Saccharomyces cerevisiae, UniProt D6VTK4).
T1 construct: The native Sc system and an empty construct were added as positive and negative controls; endogenous in cells; host or cells: Saccharomyces cerevisiae wild-type control strains GEN18 (MATa) and GEN27 (MATα)
T1 sequence (D6VTK4 1-431): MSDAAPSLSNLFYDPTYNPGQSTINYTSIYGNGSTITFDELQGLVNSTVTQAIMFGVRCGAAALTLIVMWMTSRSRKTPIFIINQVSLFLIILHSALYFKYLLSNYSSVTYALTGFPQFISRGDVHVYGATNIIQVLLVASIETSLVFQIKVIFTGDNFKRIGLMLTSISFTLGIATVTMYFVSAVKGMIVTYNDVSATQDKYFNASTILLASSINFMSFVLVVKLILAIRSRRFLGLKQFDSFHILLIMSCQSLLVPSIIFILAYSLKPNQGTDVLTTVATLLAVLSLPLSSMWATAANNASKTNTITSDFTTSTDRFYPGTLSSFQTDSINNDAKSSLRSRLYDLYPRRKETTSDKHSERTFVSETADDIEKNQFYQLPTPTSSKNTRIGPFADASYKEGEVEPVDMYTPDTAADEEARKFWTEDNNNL
The experiment is classed as cell-based.

Experiment [11] relates to empty (strain lacking a GPCR). The experiment is classed as cell-based, Saccharomyces cerevisiae.
Experiment [12] concerns Fg.Ste2. Format: cell-based, Fusarium graminearum.
Experiment [13] deals with Fg.Ste2. The experiment is classed as cell-based, Fusarium graminearum. This is another data set of the same source.
A further experiment has as its system B. bassiana. Format: cell-based, Beauveria bassiana. To be noted: 20 hours.
The subject of a further experiment is F. oxysporum germ tubes. To be noted: gradient of 400 μM pheromone against the solvent (50% methanol); 13 h; water-agar; three biological replicates; Fig. 5A.
The test system of experiment [14] is F. oxysporum microconidia. The experiment in a line: Germination of F. oxysporum microconidia. Format: cell-based, Fusarium oxysporum f. sp. lycopersici 4287. On the set-up: Germination of F. oxysporum microconidia (data of Sup.Fig.10): unit not given here. To be noted: for Germination of F. oxysporum microconidia (data of Sup.Fig.10): 400 μM pheromone, 13 h, at least 300 spores counted. As for the experimental part:
For F. oxysporum microconidia production, the strain was grown for 3 to 4 d in liquid potato dextrose broth (PDB) at 28 °C and 170 rpm. Germination media ([10]) was used for assessing the spore germination. RE was prepared by removing 2-wk-old tomato plants from vermiculite and washing the roots to remove any adhering substrates ([11]).
Supplementary Figure 10. Germination of F. oxysporum microconidia after 13 h of incubation in Germination Media at a cell density of […] microconidia/mL. The assay was performed with 400 μM of pheromone. All points represent the average of three biological replicates in which at least 300 spores were counted. Statistical significance was determined through one-way analysis of variance (ANOVA) with Dunnett’s multiple comparisons (✱p ≤ 0.05).

In experiment [15] the test system is Bc.Ste2. The experiment is classed as cell-based, Botrytis cinerea. To be noted: 0.0005 μM Bc pheromone in combination with 10 μM peptide; four biological replicates; Fig. 2G.
The mark [16] stands for this setting: Fig. 1D mating matrix, pheromone secreted by MATa strain, GPCR in MATα strain, deep well plate, 20 h coculture, three technical plating replicates.
Where [17] appears, read: Fig. 1D mating matrix, pheromone secreted by MATa strain, MATα strain lacking a GPCR (empty), deep well plate, 20 h coculture.

Where “and” joins values, the source holds several entries; their conditions need not be identical. Equal values may be shown once. Read-outs that look alike come from different tables or passages of the source. Where a SMILES comes first, the peptide text is derived from it.

Method for F. oxysporum germ tubes: For the B. bassiana and F. oxysporum chemotropism assay and plant infection assays the pheromones were dissolved in 50% (v/v) MeOH to reach a concentration of 4,000 μM.
Fungal chemotropism was conducted as previously described ([11]). For each compound or combination of compounds tested, 300 hyphal tips were scored. All experiments were performed in three biological replicates.

Take `CC(C)C[C@H](NC(=O)[C@H](CS)NC(=O)[C@@H](N)Cc1c[nH]c2ccccc12)C(=O)N[C@@H](CCCNC(=N)N)C(=O)N[C@H](C(=O)NCC(=O)N[C@@H](CCC(N)=O)C(=O)N1CCC[C@H]1C(=O)N[C@@H](CS)C(=O)N[C@@H](Cc1c[nH]c2ccccc12)C(=O)O)C(C)C` [A1] (H-WCLRVGQPCW-OH; N-terminus and C-terminus assumed): the logEC50 in the experiment on Bb.Ste2 [1] is listed as -9.317.
Turning to `NCCCC[C@H](NC(=O)[C@H](CO)NC(=O)CNC(=O)[C@H](CS)NC(=O)[C@@H](N)Cc1c[nH]c2ccccc12)C(=O)NCC(=O)N[C@@H](CCC(N)=O)C(=O)N1CCC[C@H]1C(=O)N[C@@H](CS)C(=O)N[C@@H](Cc1c[nH]c2ccccc12)C(=O)O` [A2] (H-WCGSKGQPCW-OH; N-terminus and C-terminus assumed), in the experiment with Bb.Ste2 [1], the “Activation of Bb.Ste2 biosensor, in words” value is on record as “higher EC50 values”; the Hillslope is recorded as 1.362; the logEC50 is reported as -3.661.
In the case of `CC(C)C[C@H](NC(=O)[C@H](CS)NC(=O)[C@@H](N)Cc1c[nH]c2ccccc12)C(=O)N[C@@H](Cc1c[nH]c2ccccc12)C(=O)N[C@@H](CCCNC(=N)N)C(=O)NCC(=O)N[C@@H](CCC(N)=O)C(=O)N1CCC[C@H]1C(=O)N[C@@H](CS)C(=O)N[C@@H](Cc1c[nH]c2ccccc12)C(=O)O` [A5] (H-WCLWRGQPCW-OH; N-terminus assumed), in the experiment on Fo.Ste2 [2], the “EC50 fold lower than that of the native Fo alpha pheromone” value is reported as “at least 13 fold” and the logEC50 is listed as -8.637.
In the experiment with Bc.Ste2 [3], `CC(C)C[C@H](NC(=O)[C@H](CC(C)C)NC(=O)[C@H](CS)NC(=O)[C@@H](N)Cc1c[nH]c2ccccc12)C(=O)N[C@@H](CC(=O)O)C(=O)NCC(=O)N[C@@H](CCC(N)=O)C(=O)N1CCC[C@H]1C(=O)N[C@@H](CS)C(=O)N[C@@H](Cc1c[nH]c2ccccc12)C(=O)O` [A6] (H-WCLLDGQPCW-OH; N-terminus and C-terminus assumed) showed a Hillslope of 0.5567 and a logEC50 of -8.01. The “Sup.Fig.3A Bc.Ste2 biosensor response, group mean” value in the experiment on Bc.Ste2 [3] (10 μM) is 1.225.
With `NC(N)=O` [Urea], in the experiment on Fo.Ste2 [4], the “Effect on abundance of diploids with Fo.Ste2” value is “did not affect”. Besides, in the experiment with Hj.Hpr2, the “Fold increase of diploids containing Hj.Hpr2” value was 20 fold. For the same molecule, in the experiment on Fg.Ste2 [5], the “Fold decrease in the abundance of diploids with Fg.Ste2” value is listed as 0.8 fold. Also, in experiment [6], the “Effect on abundance of diploids with the control strain no_GPCR” value is “did not affect”. For the same molecule, the “Increase of diploids containing Bb.Ste2” value in the experiment on Bb.Ste2 [7] is reported as “fourfold”.
Turning to “QWCRIHGQSCW [Nc, alpha pheromone of Neurospora crassa]”, the “Diploid frequency (%)” value in the experiment with Hj Ste2 GPCR (Hj.Hpr2) came to 0.0%; in the experiment on Bc.Ste2 [8] it was 0.1%; in the experiment on Fo.Ste2 [9], 0.0%; in the experiment on Mo Ste2 GPCR (setting [16]), 0.0%; in the experiment on Bb.Ste2 [10] (setting [16]) it was 0.0%; in the experiment with Nc Ste2 GPCR, 2.8%. Besides, the “Diploid frequency (%)” value is given as 0.0% in the experiment on Ca.Ste2, 0.0% at Sc Ste2, 0.1% in [11] (setting [17]) and 0.0% in the experiment with Fg.Ste2 [12] (setting [16]).
On to “WCIQSGQPCW [A3, Fg.Ste2 - Agonist candidate from the YPL1 pheromone library]”, for which, in the experiment with Fg.Ste2 [13] (Control mean 1, mean of n = 4), the “Sup.Fig.3A Fg.Ste2 biosensor response, group mean” value came out at 1.455. The “Activation of Fg.Ste2 biosensor, in words” value in the experiment with Fg.Ste2 [13] (chemically synthesized pheromone) is “almost no effect”.
With “WCYRIGEPCW [Hj, alpha pheromone of Hypocrea jecorina (Trichoderma reseei)]”, the “Diploid frequency (%)” value with Hj Ste2 GPCR (Hj.Hpr2) is 0.1%; in the experiment with Bc.Ste2 [8] it was 0.1%; in the experiment with Fo.Ste2 [9] it was 0.0%; with Mo Ste2 GPCR, 0.1%; with Bb.Ste2 [10] it was 4.9%; in the experiment on Nc Ste2 GPCR it was 0.1%. The “Diploid frequency (%)” value was 0.1% in the experiment on Ca.Ste2, 0.0% at Sc Ste2, 0.1% in experiment [11] and 0.0% in the experiment on Fg.Ste2 [12]. The “diploid frequency (%), Plates, Hj” value in the experiment on Hj Ste2 GPCR (Hj.Hpr2) is 0.67% and 0.16% and 0.05% and 1.62% and 0.03% and 1.07% and 0.1% and 0.01%. Besides, the “Sup.Fig.7B - Hj, group mean” value with Hj.Hpr2 (pH=6) is listed as 0.1033; in the experiment on Hj.Hpr2 (pH=7), 0.03. For the same molecule, the “qPCR, Hj + Hj” value with Hj.Hpr2 (ph=7) worked out at 0.0033.
“WHWLQLKPGQPMY [Sc, alpha pheromone of Saccharomyces cerevisiae]”: the “Diploid frequency (%)” value in the experiment with Hj Ste2 GPCR (Hj.Hpr2) came out at 0.0%; in the experiment with Bc.Ste2 [8], 0.1%; in the experiment on Fo.Ste2 [9], 0.0%; in the experiment with Mo Ste2 GPCR (setting [16]), 0.2%; in the experiment with Bb.Ste2 [10] (setting [16]) it was 0.0%; in the experiment with Nc Ste2 GPCR, 0.0%. Further, the “Diploid frequency (%)” value with Ca.Ste2 stood at 0.0%; at Sc Ste2, 90.9%; in experiment [11] (setting [17]), 0.2%; in the experiment with Fg.Ste2 [12] (setting [16]), 0.0%.
Consider “WRWPCCWGQT [Scrambled, Scrambled version of F. oxysporum pheromone, negative control]”, for which the “Chemotropic response in Bb germ tubes” value in the experiment with B. bassiana is given as “did not”. Further, the “Chemotropic response in F. oxysporum germ tubes” value in the experiment with F. oxysporum germ tubes is on record as “did not”. For the same molecule, the “Germination of F. oxysporum microconidia (data of Sup.Fig.10)” value is reported as 53,95 in experiment [14] (biological replicate 1 (first line)), 33,33 in experiment [14] (biological replicate 2 (second line)) and 27,4 in experiment [14] (biological replicate 3 (third line)). Further, in experiment [14] (Sup.Fig.10, Dunnett's multiple comparisons test, n = 3), the “Mean Diff, Solvent vs. peptide” value is 5,543. Further, in [14] (Sup.Fig.10, Solvent control mean 43,77, mean of n = 3), the “Mean 2 (peptide), germination” value is reported as 38,23. Also, in the experiment on Bc.Ste2 [15], the “Effect on activation of Bc.Ste2 by Bc pheromone, in words” value is “do not differ significantly from Bc alone”.

The record behind these values is article PMC12582325 (Proceedings of the National Academy of Sciences of the …, 2025).
